Test results: PubChem BioAssay (NCI)
Where “and” joins values, the source holds several entries; their conditions need not be identical. Equal entries are not always repeated.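 Cells were grown in 96-well plates and exposed to each compound for 48 hours at five concentrations; endpoints were interpolated linearly between bracketing concentrations, or set to the highest concentration if not reached. GI50: concentration for 50% inhibition of growth. TGI: concentration producing complete growth inhibition.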 Where a SMILES comes first, the peptide text is derived from it. [ ]: non-standard residue; d: D form. ξ: configuration not given here. Pentanoyl(2-O,4-OH,5-Cl) = O=C(O)C(O)CC(O)CCl; Ile(3ξ) = CCC(C)[C@H](N)C(=O)O; NMeV = CN[C@H](C(=O)O)C(C)C; NMeA = CN[C@@H](C)C(=O)O; βAla = NCCC(=O)O

Key:
Experiment in all cases: NCI-60 cell line screen, 48 h
[1] = tested on: A498 renal
[2] = tested on: BT-549 breast
[3] = tested on: K-562 leukemia
[4] = tested on: MDA-MB-231 breast
[5] = tested on: RPMI-8226 leukemia
[6] = tested on: SK-MEL-28 melanoma
[7] = tested on: SK-MEL-5 melanoma
[8] = tested on: HL-60(TB) leukemia

SMILES	TGI [1]	TGI [2]	TGI [3]	TGI [4]	TGI [5]	TGI [6]	TGI [7]	GI50 [1]	GI50 [2]	GI50 [3]	GI50 [4]	GI50 [5]	GI50 [6]	GI50 [7]	GI50 [8]	TGI [8]
COc1ccc(CC(C)NCC(O)c2ccc(O)c(NC=O)c2)cc1 (stereo not drawn)	> 100 µM	> 100 µM	> 100 µM	> 100 µM	> 100 µM	> 100 µM	> 100 µM	–	–	–	–	–	–	–	–	–
[Cu].c1ccc2c(c1)C1=NC2=NC2=NC(=NC3=NC(=NC4=NC(=N1)c1ccccc14)c1ccccc13)c1ccccc12	> 100 µM	> 100 µM	> 100 µM	> 100 µM	> 100 µM	> 100 µM	> 100 µM	> 100 µM	> 100 µM	> 100 µM	> 100 µM	> 100 µM	> 100 µM	> 100 µM	–	–
CCn1c(-c2nonc2N)nc2cnc(Oc3cccc(NC(=O)c4ccc(OCCN5CCOCC5)cc4)c3)cc21	> 23.7 µM	15.3 µM	> 25 µM	> 25 µM	> 25 µM	> 25 µM	> 22 µM	1.05 µM	0.438 µM	7.38 µM	1.65 µM	4.28 µM	> 20.1 µM	3.18 µM	10.3 µM	> 25 µM
O=C(O)c1c2c(c(O)c3c1CN(C1CCCCC1)CO3)OCN(C1CCCCC1)C2	> 100 µM	> 100 µM	> 100 µM	> 100 µM	> 100 µM	> 100 µM	> 100 µM	–	–	–	–	–	–	–	–	–
O=C(O)CN(CCN(CC(=O)O)CC(=O)O)CCN(CC(=O)O)CC(=O)O	15.1 µM	9.45 µM	–	87.6 µM	–	17.2 µM	9.07 µM	1.86 µM	2.77 µM	–	10.5 µM	–	4.05 µM	2.92 µM	2.12 µM	5.01 µM
Nc1nc(N)c2cc(S(=O)(=O)c3cccc(C(F)(F)F)c3)ccc2n1	–	–	> 100 µM	> 100 µM	> 100 µM	> 100 µM	> 100 µM	–	–	0.682 µM	9.75 µM	5.21 µM	85.1 µM	2.98 µM	–	–
CCOC(=O)c1sc2nc(=S)[nH]c(NC(N)=S)c2c1C	62 µM	41 µM	> 100 µM	31.9 µM	49.9 µM	41.6 µM	31.7 µM	27.8 µM	12.6 µM	28.3 µM	12.1 µM	18.4 µM	19 µM	16.8 µM	51.2 µM	> 100 µM
CC(C)Cn1cnc2c(N)nc3ccccc3c21	> 100 µM	> 100 µM	> 100 µM	> 100 µM	> 48.3 µM	> 100 µM	50.3 µM	47.8 µM	43.8 µM	> 54.7 µM	46 µM	5.5 µM	> 74.9 µM	18.4 µM	> 47.7 µM	> 100 µM
C=CC(=O)N1CCN([C@@H](CC2CC2)c2ccc([C@H](C)Nc3ncc4c(n3)N(CC)C(=O)OC4)cc2)CC1	23.6 µM	16.6 µM	69.5 µM	27.4 µM	24.9 µM	30.5 µM	30 µM	11.2 µM	4.7 µM	5.34 µM	12 µM	4.95 µM	16.6 µM	15.4 µM	2.28 µM	12.7 µM
COc1cc(OC)c(OC)cc1/C=C/c1ccccn1	> 10 µM	> 10 µM	> 10 µM	> 10 µM	–	> 10 µM	> 10 µM	–	–	–	–	–	–	–	–	> 10 µM
CN1CCN(CCCOC(=O)c2c3c(n4ccccc24)C(=O)c2ncccc2C3=O)CC1	–	16.3 µM	–	37.2 µM	–	4.25 µM	0.592 µM	–	0.426 µM	< 0.0113 µM	2.53 µM	0.0653 µM	0.08 µM	0.0269 µM	0.0684 µM	14.6 µM
CCOc1cc(/C=C/C(=O)CC(=O)/C=C/c2ccc(OC(=O)CNc3nc4ccc(OC)cc4s3)c(OCC)c2)ccc1OC(=O)CNc1nc2ccc(OC)cc2s1	26.2 µM	8.78 µM	> 100 µM	60 µM	4.29 µM	12.2 µM	17.2 µM	13.4 µM	2.62 µM	2.71 µM	13.8 µM	1.69 µM	3.54 µM	5.25 µM	2.77 µM	15.2 µM
Cc1cc[c]([Sb]2[O]C(CO)C(C(O)C(O)C(=O)O)[O]2)cc1 (stereo not drawn)	99.7 µM	> 100 µM	> 100 µM	> 100 µM	–	> 100 µM	> 100 µM	32.3 µM	> 100 µM	46.5 µM	78 µM	–	39.6 µM	> 100 µM	–	–
CC[C@@H]1C(=O)N(C)c2cnc(Nc3ccc(C(=O)NC4CCC(N5CCN(CC6CC6)CC5)CC4)cc3OC)nc2N1C(C)C (stereo partly drawn)	0.236 µM and 0.252 µM	> 10 µM and 6.44 µM	> 10 µM and 1.83 µM	> 4.6 µM and 7.06 µM	1.62 µM and 1.89 µM	2.64 µM and 3.16 µM	0.517 µM and 0.654 µM	0.0284 µM and 0.0338 µM	0.078 µM and 0.0387 µM	0.00946 µM and 0.0288 µM	0.0186 µM and 0.0304 µM	0.0382 µM and 0.0558 µM	0.0737 µM and 0.0669 µM	0.0409 µM and 0.0472 µM	0.00286 µM and < 0.0167 µM	0.0596 µM and 0.0871 µM
CCCCCCCCCCCC(c1ccccc1)[N+](C)(C)C (stereo not drawn)	7.24 µM	2.95 µM	4.09 µM	4.25 µM	1.92 µM	3.31 µM	2.11 µM	1.99 µM	1.31 µM	0.673 µM	1.68 µM	0.462 µM	1.49 µM	0.874 µM	0.291 µM	1.47 µM
N#CSc1c[nH]c2ccc(/C=C/C(=O)/C=C(O)/C=C/c3ccc4[nH]cc(SC#N)c4c3)cc12	55.4 µM	8.04 µM	–	3.61 µM	5.98 µM	5.76 µM	3.48 µM	7.61 µM	1.52 µM	–	1.72 µM	1.56 µM	2 µM	1.52 µM	0.902 µM	4.34 µM
Cc1cc2c(cc1Cl)SC(=Nc1ccc(Cl)cc1)N(S(=O)(=O)c1ccc(Br)s1)S2(=O)=O	26.2 µM	48.8 µM	77.5 µM	38.9 µM	21.5 µM	> 100 µM	43.3 µM	5.02 µM	19.2 µM	16.4 µM	12.9 µM	3.7 µM	24.6 µM	13.7 µM	22.4 µM	46.8 µM

SMILES	TGI [1]	TGI [2]	TGI [3]	TGI [4]	TGI [5]	TGI [6]	TGI [7]	GI50 [1]	GI50 [2]	GI50 [3]	GI50 [4]	GI50 [5]	GI50 [6]	GI50 [7]	GI50 [8]	TGI [8]
OC(c1ccccc1)c1c(-c2ccccc2)[nH]c(-c2ccccc2)c1C(O)c1ccccc1 (stereo not drawn)	8.73 µM	–	4.64 µM	–	5.02 µM	12.1 µM	5.27 µM	–	–	–	–	–	–	–	–	4.24 µM
COc1ccc(-c2cc(=O)c3c(C)ccnc3[nH]2)cc1	41.4 µM	67.3 µM	> 100 µM	> 100 µM	53 µM	> 100 µM	14.7 µM	–	–	–	–	–	–	3.87 µM	4.37 µM	17.3 µM
COc1cccc2c1C(=O)c1c(O)c3c(c(O)c1C2=O)C[C@@](O)(/C(C)=N/NC(=O)c1cccc([N+](=O)[O-])c1)C[C@@H]3OC1CC(N)C(O)C(C)O1 (stereo partly drawn)	2.23 µM	4.43 µM	5.16 µM	21.3 µM	1.86 µM	2.45 µM	0.361 µM	0.564 µM	0.714 µM	0.356 µM	1.59 µM	0.2 µM	0.608 µM	0.113 µM	0.146 µM	0.923 µM
O=c1[nH]c(=O)n(Cc2ccc(C34CC5CC(CC(C5)C3)C4)c(O)c2)cc1F	22.1 µM	28.1 µM	18.2 µM	28.9 µM	23.8 µM	21.8 µM	23.3 µM	10.2 µM	14.4 µM	3.49 µM	14.3 µM	5.74 µM	4.62 µM	11.2 µM	3.05 µM	16 µM
Clc1cccc(-c2cc(-c3ccc4c(c3)OCCO4)[nH]n2)c1	18.5 µM	47 µM	250 µM	47.6 µM	250 µM	57 µM	39.1 µM	1.73 µM	6.32 µM	1.04 µM	7.75 µM	6.38 µM	27.2 µM	5.9 µM	4.65 µM	53.6 µM
CN1CCC2(CC1)C(=O)Nc1cc(NC(=O)c3ccc4c(c3)C[C@@H]3C(C)(C)[C@H](O)[C@H](F)C[C@@]3(C)O4)ccc12	1.09 µM	20.1 µM	> 100 µM	21.1 µM	10.8 µM	14.5 µM	12.3 µM	0.135 µM	0.0691 µM	0.201 µM	3.36 µM	0.0272 µM	1.53 µM	2.62 µM	0.0842 µM	13.7 µM
C/C(=C1\C(=O)Nc2ccccc21)c1cccc(/C(C)=C2/C(=O)Nc3ccccc32)n1	34.8 µM	36.5 µM	> 100 µM	74.7 µM	> 100 µM	> 100 µM	25.4 µM	4.44 µM	5.43 µM	4.35 µM	11.5 µM	4.87 µM	31.5 µM	5.67 µM	16 µM	> 100 µM
CCC(C)[C@@H]1NC(=O)[C@@H]2CCCN2C(=O)C(CC(O)CCl)OC(=O)CCNC(=O)[C@H](C)N(C)C(=O)[C@H](C(C)C)N(C)C1=O (stereo partly drawn) (cyclo([Ile(3ξ)][NMeV][NMeA][βAla][Pentanoyl(2-O,4-OH,5-Cl)]P))	> 93.5 µM	> 100 µM	> 100 µM	> 100 µM	> 100 µM	> 100 µM	2.29 µM	–	–	–	–	–	–	–	–	> 100 µM
CC(NC(=O)c1ccc(Cl)c(Cl)c1)c1ccc(-c2ccccc2)cc1 (stereo not drawn)	> 100 µM	> 100 µM	> 100 µM	> 100 µM	> 100 µM	> 100 µM	> 100 µM	–	–	–	–	–	–	–	–	> 100 µM
COc1ccc(-c2nn3ncccc3c2-c2ccnc(Nc3ccc(F)c(F)c3)n2)cc1	> 23 µM	> 25 µM	> 25 µM	> 25 µM	> 25 µM	> 25 µM	> 25 µM	3.96 µM	15 µM	6.57 µM	9.1 µM	14.7 µM	17.8 µM	8.08 µM	13.2 µM	> 25 µM
Clc1ccc2c(NC3CCC(NC4CCCCC4)CC3)ccnc2c1 (stereo not drawn)	27.4 µM	25.1 µM	–	23.8 µM	14.5 µM	3.3 µM	3.2 µM	4.07 µM	12.3 µM	–	5.94 µM	2.26 µM	1.79 µM	1.77 µM	–	–
CC(C)CC(NC(=O)C(O)C(N)Cc1ccccc1)C(=O)O (stereo not drawn)	–	–	> 100 µM	> 100 µM	> 100 µM	> 100 µM	> 100 µM	–	–	–	–	–	–	–	–	> 100 µM
CN1CCN(c2cc(F)c(NC3=C(Cl)C(=O)c4ncccc4C3=O)c(F)c2)CC1	23.7 µM	3.06 µM	> 100 µM	3.87 µM	–	3.36 µM	3.13 µM	10.9 µM	1.63 µM	0.651 µM	1.94 µM	–	1.88 µM	1.66 µM	1.65 µM	5.46 µM
COc1cccc(C2CC(C)(O)Oc3cc4c(cc32)OCO4)c1 (stereo not drawn)	–	> 100 µM	> 100 µM	96.2 µM	66.2 µM	> 100 µM	> 100 µM	–	–	–	–	–	–	–	–	> 100 µM
Clc1ccc(NCNC2Nc3ccccc3N2)cc1Cl	> 100 µM	–	> 100 µM	> 100 µM	> 100 µM	> 100 µM	54.6 µM	–	–	–	–	–	–	–	–	> 100 µM
Oc1ccc(CCNc2nc3ccccc3c3[nH]c4ccccc4c23)cc1O	26.5 µM	21.3 µM	4.13 µM	11.8 µM	–	18.3 µM	11.5 µM	13.6 µM	9.27 µM	1.83 µM	2.98 µM	–	5.85 µM	3.2 µM	2.07 µM	4.36 µM
CCN(CC)CCN1C(=O)C2C3C(C)=CC(OC(C)=O)(CC3C)C2C1=O (stereo not drawn)	> 100 µM	> 100 µM	> 100 µM	> 100 µM	–	–	> 100 µM	> 100 µM	> 100 µM	> 100 µM	> 100 µM	–	–	> 100 µM	> 100 µM	> 100 µM
